Where no end group is shown, it is not given here.
Columns and labels:
[1] = test system: ASH::ChR2 animals; test: Cross-modal sensitization assay (reversal response to optogenetic ASH activation); format: in vivo, C. elegans
From the text: Channelrhodopsin experiments: 1-2 day old well-fed adult animals were used for all experiments. For LED stimulation: for experiments with flp-20 mutant animals, a custom setup was used as described in ([Ezcurra et al., 2011]); for experiments on frpr-3 mutant animals and RNAi transgenic lines, a custom setup was used as in ([Ardiel et al., 2016], [Ardiel et al., 2017]) using 480 nm Luxeon star LEDs with 450 uw/mm^2 power. In contrast to locomotion arousal experiments described above, these experiments used an automated tapper, which produces equivalent speed responses (Figure S1C). […] ATR (R2500 Sigma-Aldrich) was provided to animals by feeding as described in ([Rabinowitch et al., 2016b]). > 20 animals were placed onto the seeded plate and at least 4 plates were assayed per condition and genotype on multiple days for all cross-modal sensitization behavioral experiments. Video recording was started 5 min after the plate was placed on the stage. For animals exposed to a pre-arousing tap, 1 tap was used, followed by a 20 s interval and then a 2 s blue light stimulation. […]
To test if 2-nonanone exposure could sensitize ASH-dependent reversals, 200 μL undiluted nonanone was spread with a pipette around the rim inside the lid of Petri dish. […] For all experiments, reversal length was analyzed using MATLAB ([Ardiel et al., 2017], [Ezcurra et al., 2011], [Ramot et al., 2008]).

[2] = test system: C. elegans wild-type animals; test: Locomotion assay after odorant stimuli; format: in vivo; conditions: benzaldehyde 1% in ethanol, 2-nonanone undiluted, dropped in front of the nose
[3] = test system: ASH neuron; test: Nonanone sensitization assay, ASH calcium imaging in microfluidics chip; format: in vivo, C. elegans; conditions: 5 s nonanone pulse (100%) then 0.5 M glycerol; GCaMP3; n = 9-10
Protocol: In microfluidics chip: Calcium imaging on 1-2 day old adult animals was performed in custom-designed microfluidic devices as described (using mechanical stimulus module from [Cho et al., 2018], [Cho et al., 2017]). These experiments were performed on a Leica DMIRB inverted microscope using a 40x air objective (N.A. 0.75). Video sequences were captured using a Hamamatsu EM-CCD camera with 100 ms exposure time. Simultaneous dual color imaging was performed using a DV2 beamsplitter (Photometrics) containing a GFP(520 nm)/RFP(605 nm) filter set. Excitation light for fluorescent imaging was delivered through a projector system ([Stirman et al., 2011]). […] Videos were recorded for 40-90 s following stimulus delivery. For analysis of calcium transients, fluorescence intensities for each frame were extracted using a custom MATLAB script ([Cho et al., 2018], [Cho et al., 2017]). […] GCaMP3 and RFP intensities were measured as the mean pixel intensity of the 100 brightest pixels in a circular region of interest (ROI) with a 10 pixel radius. […] All quantification is provided as the ratio of GCaMP3 to tagRFP fluorescence intensity. […]

[4] = target: T1, FRPR-3 (Caenorhabditis elegans, UniProt Q66GU0); test: In vitro GPCR activation assay (aequorin calcium bioluminescence, CHO/mtAEQ/Gα16 cells); format: cell-based, C. elegans; conditions: mammalian cells expressing aequorin and promiscuous Gα16
T1 sequence (Q66GU0 1-360): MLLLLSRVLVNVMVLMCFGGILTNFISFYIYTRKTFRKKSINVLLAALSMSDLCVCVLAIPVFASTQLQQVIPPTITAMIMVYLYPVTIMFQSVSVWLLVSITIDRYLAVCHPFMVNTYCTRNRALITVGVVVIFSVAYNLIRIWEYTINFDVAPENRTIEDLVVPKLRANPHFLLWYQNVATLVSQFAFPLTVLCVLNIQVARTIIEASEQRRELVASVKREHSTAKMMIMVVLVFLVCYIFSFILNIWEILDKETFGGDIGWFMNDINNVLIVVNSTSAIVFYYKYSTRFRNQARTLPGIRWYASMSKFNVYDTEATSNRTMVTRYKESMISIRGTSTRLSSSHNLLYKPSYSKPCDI
Protocol: Cell-based activation assays were performed as described ([Beets et al., 2012]). FRPR-3/C26F1.6 cDNA was cloned into the pcDNA3.1(+) TOPO expression vector (Thermo Fisher Scientific). Receptor activation was studied in Chinese hamster ovary cells (CHO) stably expressing apo-aequorin (mtAEQ) targeted to the mitochondria as well as the human Gα16 subunit. The CHO-K1 cell line (PerkinElmer, ES-000-A2) was used for receptor activation assays. CHO/mtAEQ/Gα16 cells were transiently transfected with the FRPR-3 cDNA construct or the empty pcDNA3.1(+) vector using the Lipofectamine transfection reagent (Thermo Fisher Scientific). Cells expressing the receptor were shifted to 28°C 1 day later, and collected 2 days post-transfection in BSA medium (DMEM/HAM’s F12 with 15 mM HEPES, without phenol red, 0.1% BSA) loaded with 5 μM coelenterazine h (Thermo Fisher Scientific) for 4 h to reconstitute the holo-enzyme aequorin. Cells (25,000 cells/well) were exposed to synthetic peptides in BSA medium, and aequorin bioluminescence was recorded for 30 s on a MicroBeta LumiJet luminometer (PerkinElmer, Waltham Massachusetts) in quadruplicate. For dose-response evaluations, after 30 s of ligand-stimulated calcium measurements, Triton X-100 (0.1%) was added to the well to obtain a measure of the maximum cell Ca^2+ response. BSA medium without peptides was used as a negative control and 1 μM ATP was used to check the functional response of the cells. Cells transfected with the empty vector were used as a negative control (not shown). EC50 values were calculated from dose-response curves, constructed using a nonlinear regression analysis, with sigmoidal dose-response equation (Prism 6.0).

Molecule: O=Cc1ccccc1 [benzaldehyde]
- Effect of odorant presence on tap-evoked enhancement of ASH responses ([1]; 1% benzaldehyde in ethanol on lid, tap, 20 s wait, blue light 2 s, n>15): did not prevent enhancement of ASH responses by tap

Molecule: CCCCCCCC(C)=O [nonanone, 2-nonanone]
- Enhancement of behavioral (reversal) response to optogenetic ASH activation by prior odorant exposure ([1]; 200 μL undiluted nonanone on lid, blue light 40 s later, n > 7): nor did it enhance behavioral responses to optogenetic activation of ASH
- Increase in locomotion speed after stimulus [2]: can evoke locomotor arousal
- Enhancement of ASH calcium responses to glycerol by prior odorant exposure [3]: did not significantly enhance ASH responses to glycerol

Molecule: AMMRF-NH2 [AMMRFa]
- EC50 values for activation of FRPR-3 (in words) [4]: low nanomolar range

Molecule: AVFRM-NH2 [AVFRMa]
- EC50 values for activation of FRPR-3 (in words) [4]: low nanomolar range

Molecule: SVFRL-NH2 [SVFRLa]
- EC50 values for activation of FRPR-3 (in words) [4]: low nanomolar range

— article PMC6162336, “An Afferent Neuropeptide System Transmits Mechanosensory Signals Triggering Sensitization and Arousal in C. elegans” (Neuron, 2018)
